Test results reported in US11912714B2, “Spiropyrrolidine derived antiviral agents” (ENANTA PHARMACEUTICALS, INC., priority 2021, dated 2024).
Like-named read-outs stand apart in the source and are kept apart here.

Key:
[1] = tested on: 229E human corona virus (hCoV); experiment: 229E live virus assay (CPE, ATPlite) in MRC-5 cells; assay type: cell-based, hCoV-229E; settings: Human coronavirus 229E, MRC5, 144 h, read-out: 229E EC50
SARS-CoV-2 3CL-protease = SARS-CoV-2 3CL-protease (Severe acute respiratory syndrome coronavirus 2 (2019-nCoV) (SARS-CoV-2), UniProt P0DTD1); experiment: SARS-CoV-2 3C-like (3CL) protease fluorescence assay (FRET); assay type: biochemical; settings: recombinant SARS-CoV-2 3CL-protease 10 nM, 30 min preincubation, peptide substrate, duplicate
[2] = MRC-5 cells, MOI 0.05, 6 days at 34° C., ATPlite readout, duplicate

Structure (SMILES)	EC50 [1] [nM]	IC50 (SARS-CoV-2 3CL-protease) [nM]	EC50 [1, 2] [nM]
CC(C)C[C@H](C(=O)Nc1cc(F)cc(F)c1)C(=O)N(C)[C@@H](CC(C)C)C(=O)N1C[C@]2(C[C@H]1C#N)C(=O)Nc1ccccc12 (single isomer, unassigned) [Compound 4]	< 100	< 100	–
CC(C)C[C@@H](C(=O)N1C[C@]2(C[C@H]1C#N)C(=O)Nc1ccccc12)N(C)C(=O)CC(=O)Nc1ccc(F)cc1F [Compound 1]	–	< 100	< 100
CC(C)CC(C(=O)Nc1cc(F)cc(F)c1)C(=O)N(C)[C@@H](CC(C)C)C(=O)N1C[C@]2(C[C@H]1C(N)=O)C(=O)Nc1ccccc12 (stereo partly shown) [Compound 2]	–	< 100	100 to 1000
CC(C)C[C@@H](C(=O)Nc1cc(F)cc(F)c1)C(=O)N(C)[C@@H](CC(C)C)C(=O)N1C[C@]2(C[C@H]1C#N)C(=O)Nc1ccccc12 [Compound 3]	100 to 1000	–	–
CC(C)C[C@@H](C(=O)N1C[C@]2(C[C@H]1C#N)C(=O)Nc1ccccc12)N(C)C(=O)CC(=O)OC(C)(C)C [Compound 5]	–	< 100	< 100
CC(C)C[C@@H](C(=O)N1C[C@]2(C[C@H]1C#N)C(=O)Nc1ccccc12)N(C)C(=O)CC(=O)c1cc2c(F)cc(F)cc2[nH]1 [Compound 6]	–	< 100	< 100
CC(C)C[C@@H](C(=O)N1C[C@]2(C[C@H]1C#N)C(=O)Nc1ccccc12)N(C)C(=O)C(C)(C)C(=O)O [Compound 7]	–	> 1000	–
CC(C)C[C@@H](C(=O)N1C[C@]2(C[C@H]1C#N)C(=O)Nc1ccccc12)N(C)C(=O)C(C)(C)C(=O)Nc1cc(F)ccc1F [Compound 8]	–	100 to 1000	–
Cc1cccc(C)c1NC(=O)C(C)(C)C(=O)N(C)[C@@H](CC(C)C)C(=O)N1C[C@]2(C[C@H]1C#N)C(=O)Nc1ccccc12 [Compound 9]	–	100 to 1000	–
Cc1cccc(C)c1NC(=O)CC(=O)N(C)[C@@H](CC(C)C)C(=O)N1C[C@]2(C[C@H]1C#N)C(=O)Nc1ccccc12 [Compound 10]	–	< 100	–
CC(C)(C)C[C@H](NC(=O)C(C)(C)C(=O)Nc1cc(F)ccc1F)C(=O)N1C[C@]2(C[C@H]1C#N)C(=O)Nc1ccccc12 [Compound 11]	–	< 100	100 to 1000
Cc1cccc(C)c1NC(=O)C(C)(C)C(=O)N[C@@H](CC(C)(C)C)C(=O)N1C[C@]2(C[C@H]1C#N)C(=O)Nc1ccccc12 [Compound 12]	–	< 100	–
Cc1cccc(C)c1NS(=O)(=O)CC(=O)N(C)[C@@H](CC(C)C)C(=O)N1C[C@]2(C[C@H]1C#N)C(=O)Nc1ccccc12 [Compound 13]	–	< 100	–
Cc1cccc(C)c1NC(=O)CS(=O)(=O)N(C)[C@@H](CC(C)(C)C)C(=O)N1C[C@]2(C[C@H]1C#N)C(=O)Nc1ccccc12 [Compound 14]	–	< 100	–
CC(C)C[C@@H](C(=O)N1C[C@]2(C[C@H]1C#N)C(=O)Nc1ccccc12)N(C)C(=O)CC(=O)NCC(C)(C)O [Compound 15]	–	< 100	–
CC(C)C[C@@H](C(=O)N1C[C@]2(C[C@H]1C#N)C(=O)Nc1ccccc12)N(C)C(=O)CC(=O)Nc1ccccc1 [Compound 16]	–	< 100	–
CC(C)C[C@@H](C(=O)N1C[C@]2(C[C@H]1C#N)C(=O)Nc1ccccc12)N(C)C(=O)CC(=O)NCc1ccccc1 [Compound 17]	–	< 100	–
CC(C)C[C@@H](C(=O)N1C[C@]2(C[C@H]1C#N)C(=O)Nc1ccccc12)N(C)C(=O)CC(=O)N[C@H](C)c1ccccc1 [Compound 18]	–	< 100	–
CC(C)C[C@@H](C(=O)N1C[C@]2(C[C@H]1C#N)C(=O)Nc1ccccc12)N(C)C(=O)CC(=O)Nc1cccc2ccccc12 [Compound 19]	–	< 100	–
CC(C)C[C@@H](C(=O)N1C[C@]2(C[C@H]1C#N)C(=O)Nc1ccccc12)N(C)C(=O)CC(=O)N[C@@H](C)c1ccccc1 [Compound 20]	–	100 to 1000	–
CC(C)C[C@@H](C(=O)N1C[C@]2(C[C@H]1C#N)C(=O)Nc1ccccc12)N(C)C(=O)CC(=O)Nc1ccccn1 [Compound 21]	–	< 100	–
CC(C)C[C@@H](C(=O)N1C[C@]2(C[C@H]1C#N)C(=O)Nc1ccccc12)N(C)C(=O)CC(=O)Nc1cccnc1 [Compound 22]	–	< 100	–
CC(C)C[C@@H](C(=O)N1C[C@]2(C[C@H]1C#N)C(=O)Nc1ccccc12)N(C)C(=O)CC(=O)Nc1ccncc1 [Compound 23]	–	< 100	–
CC(C)C[C@@H](C(=O)N1C[C@]2(C[C@H]1C#N)C(=O)Nc1ccccc12)N(C)C(=O)CC(=O)Nc1ccccc1F [Compound 24]	–	< 100	–
CC(C)C[C@@H](C(=O)N1C[C@]2(C[C@H]1C#N)C(=O)Nc1ccccc12)N(C)C(=O)CC(=O)Nc1cccc(F)c1 [Compound 25]	–	< 100	–

Structure (SMILES)	EC50 [1] [nM]	IC50 (SARS-CoV-2 3CL-protease) [nM]	EC50 [1, 2] [nM]
CC(C)C[C@@H](C(=O)N1C[C@]2(C[C@H]1C#N)C(=O)Nc1ccccc12)N(C)C(=O)CC(=O)Nc1ccc(F)cc1 [Compound 26]	–	< 100	–
CC(C)C[C@@H](C(=O)N1C[C@]2(C[C@H]1C#N)C(=O)Nc1ccccc12)N(C)C(=O)CC(=O)Nc1cn[nH]c1 [Compound 27]	–	< 100	–
Cc1cccc(C)c1NC(=O)C1(C(=O)N[C@@H](CC(C)(C)C)C(=O)N2C[C@]3(C[C@H]2C#N)C(=O)Nc2ccccc23)CC1 [Compound 29]	–	< 100	–
Cc1cccc(C)c1NC(=O)C1(C(=O)N[C@@H](CC(C)C)C(=O)N2C[C@]3(C[C@H]2C#N)C(=O)Nc2ccccc23)CCCC1 [Compound 30]	–	< 100	–
CC(C)C[C@@H](C(=O)N1C[C@]2(C[C@H]1C#N)C(=O)Nc1ccccc12)N(C)C(=O)CC(=O)NC[C@H](C)O [Compound 31]	–	< 100	–
CC(C)C[C@@H](C(=O)N1C[C@]2(C[C@H]1C#N)C(=O)Nc1ccccc12)N(C)C(=O)CC(=O)NC[C@@H](C)O [Compound 32]	–	< 100	–
CC(C)C[C@@H](C(=O)N1C[C@]2(C[C@H]1C#N)C(=O)Nc1ccccc12)N(C)C(=O)CC(=O)N[C@H](C)CO [Compound 33]	–	< 100	–
CC(C)C[C@@H](C(=O)N1C[C@]2(C[C@H]1C#N)C(=O)Nc1ccccc12)N(C)C(=O)CC(=O)N[C@@H](C)CO [Compound 34]	–	< 100	–
CC(C)C[C@@H](C(=O)N1C[C@]2(C[C@H]1C#N)C(=O)Nc1ccccc12)N(C)C(=O)CC(=O)NCC(F)F [Compound 35]	–	< 100	–
CC(C)C[C@@H](C(=O)N1C[C@]2(C[C@H]1C#N)C(=O)Nc1ccccc12)N(C)C(=O)CC(=O)N[C@@H]1CCN(C(=O)OC(C)(C)C)C1 [Compound 36]	–	100 to 1000	–
CC(C)C[C@@H](C(=O)N1C[C@]2(C[C@H]1C#N)C(=O)Nc1ccccc12)N(C)C(=O)CC(=O)N[C@H]1CCN(C(=O)OC(C)(C)C)C1 [Compound 37]	–	< 100	–
Cc1cccc(C)c1NC(=O)C1(C(=O)N[C@@H](CC(C)C)C(=O)N2C[C@]3(C[C@H]2C#N)C(=O)Nc2ccccc23)CCOCC1 [Compound 38]	–	< 100	–
CC(C)C[C@H](NC(=O)C1(C(=O)NCC(C)(C)O)CCC1)C(=O)N1C[C@]2(C[C@H]1C#N)C(=O)Nc1ccccc12 [Compound 39]	–	< 100	–
Cc1cccc(C)c1NC(=O)C1(C(=O)N[C@@H](CC(C)(C)C)C(=O)N2C[C@]3(C[C@H]2C#N)C(=O)Nc2ccccc23)CCOCC1 [Compound 40]	–	< 100	–
CC(C)C[C@@H](C(=O)N1C[C@]2(C[C@H]1C#N)C(=O)Nc1ccccc12)N(C)C(=O)CC(=O)N[C@@H]1CCC[C@@H]1O [Compound 41]	–	< 100	–
CC(C)C[C@@H](C(=O)N1C[C@]2(C[C@H]1C#N)C(=O)Nc1ccccc12)N(C)C(=O)CC(=O)N[C@H]1CCC[C@@H]1O [Compound 42]	–	< 100	–
CC(C)C[C@@H](C(=O)N1C[C@]2(C[C@H]1C#N)C(=O)Nc1ccccc12)N(C)C(=O)CC(=O)N[C@@H]1CCC[C@H]1O [Compound 43]	–	< 100	–
CC(C)C[C@@H](C(=O)N1C[C@]2(C[C@H]1C#N)C(=O)Nc1ccccc12)N(C)C(=O)CC(=O)N[C@H]1CCC[C@H]1O [Compound 44]	–	< 100	–
CC(C)C[C@@H](C(=O)N1C[C@]2(C[C@H]1C#N)C(=O)Nc1ccccc12)N(C)C(=O)CC(=O)N[C@@H]1CC[C@H](O)C1 [Compound 45]	–	< 100	–
CC(C)C[C@@H](C(=O)N1C[C@]2(C[C@H]1C#N)C(=O)Nc1ccccc12)N(C)C(=O)CC(=O)N[C@H]1CC[C@H](O)C1 [Compound 46]	–	< 100	–
CC(C)C[C@@H](C(=O)N1C[C@]2(C[C@H]1C#N)C(=O)Nc1ccccc12)N(C)C(=O)CC(=O)N[C@@H]1CC[C@@H](O)C1 [Compound 47]	–	< 100	–
CC(C)C[C@@H](C(=O)N1C[C@]2(C[C@H]1C#N)C(=O)Nc1ccccc12)N(C)C(=O)CC(=O)N[C@H]1CC[C@@H](O)C1 [Compound 48]	–	< 100	–
CC(C)C[C@@H](C(=O)N1C[C@]2(C[C@H]1C#N)C(=O)Nc1ccccc12)N(C)C(=O)CC(=O)N[C@@H](C)C(F)(F)F [Compound 49]	–	< 100	–
CC(C)C[C@@H](C(=O)N1C[C@]2(C[C@H]1C#N)C(=O)Nc1ccccc12)N(C)C(=O)CC(=O)N[C@H](C)C(F)(F)F [Compound 50]	–	< 100	–
